Results taken from patent US11827628B2, “Compositions and methods for inhibition of the JAK pathway” (Rigel Pharmaceuticals, Inc., priority 2005, dated 2023).
pIC50: −log10 of the molar value.

tested on: Primary human T-cells; experiment: Primary Human T-Cell Proliferation Assay Stimulated with IL-2 (CellTiter-Glo); format: cell-based; conditions: Homo sapiens, T-cell, primary human T-cells stimulated with IL-2, proliferation; read-out: IC50, Example 42
Procedure, shortened: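 IC50 derived from CellTiter-Glo ATP signal after 72 hours of IL-2-driven proliferation at 37° C. Cells: primary human T-cells from blood, stimulated beforehand 3-4 days on anti-CD3/anti-CD28 with IL-2, then rested from IL-2 before compound exposure in duplicate; IL-2-free wells served as unstimulated control.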

Row | SMILES | pIC50
1 | COc1cc(Nc2nc(Nc3ccc(Cl)c(S(N)(=O)=O)c3)ncc2F)ccc1Cl [VI-11, N2-(3-Aminosulfonyl-4-chlorophenyl)-N4-(4-chloro-3-methoxyphenyl)-5-fluoro-2,4-pyrimidinediamine] | 5.34
2 | NS(=O)(=O)c1cccc(Nc2ncc(F)c(Nc3ccc(-c4cnco4)cc3)n2)c1 [IV-5, N2-(3-Aminosulfonylphenyl)-5-fluoro-N4-[4-(1,3-oxazol-5-yl)phenyl]-2,4-pyrimidinediamine] | 6.94
3 | Cc1ccc(Nc2ncc(F)c(Nc3cccc4c(CC#N)c[nH]c34)n2)cc1S(N)(=O)=O [IX-16, N2-(3-Aminosulfonyl-4-methylphenyl)-N4-(3-cyanomethyl-1H-indol-7-yl)-5-fluoro-2,4-pyrimidinediamine] | 6.65
4 | Cc1ccc(Nc2ncc(F)c(Nc3ccc4[nH]cc(CC#N)c4c3)n2)cc1S(N)(=O)=O [IX-14, N2-(3-Aminosulfonyl-4-methylphenyl)-N4-(3-cyanomethyl-1H-indol-5-yl)-5-fluoro-2,4-pyrimidinediamine] | 6.18
5 | N#CCN1C(=O)CSc2ccc(Nc3nc(Nc4ccc(S(N)(=O)=O)cc4)ncc3F)cc21 [Compound V-11, N2-(4-Aminosulphonylphenyl)-5-fluoro-N4-(3-oxo-4-cyanomethyl-benzo[1,4]thiazin-6-yl)-2,4-pyrimidinediamine] | 6.10
6 | Cc1ccc(Nc2ncc(F)c(Nc3ccc(C(=O)N4CCSCC4)cc3)n2)cc1S(N)(=O)=O [IX-35, N2-(3-Aminosulfonyl-4-methylphenyl)-5-fluoro-N4-[4-(4-thiomorpholinyl)carbonylphenyl]-2,4-pyrimidinediamine] | 6.06
7 | Cc1ccc(Nc2ncc(F)c(Nc3ccc4oc(C#N)cc4c3)n2)cc1S(N)(=O)=O [VII-53, N2-(3-Aminosulfonyl-4-methylphenyl)-N4-(2-cyanobenzofuran-5-yl)-5-fluoro-2,4-pyrimidinediamine] | 6.32
8 | Cc1ccc(Nc2ncc(C)c(Nc3ccc4c(c3)NC(=O)CO4)n2)cc1S(N)(=O)=O [VII-30, N2-(3-Aminosulphonyl-4-methylphenyl)-5-methyl-N4-(3-oxo-benz[1,4]oxazin-6-yl)-2,4-pyrimidinediamine] | 7.57
9 | C=Cc1ccc(Nc2nc(Nc3ccc(C)c(S(N)(=O)=O)c3)ncc2F)cc1 [VI-54, N2-(3-Aminosulfonyl-4-methylphenyl)-5-fluoro-N4-(4-vinylphenyl)-2,4-pyrimidinediamine] | 6.01
10 | CC#CCOc1ccc(Nc2nc(Nc3ccc(C)c(S(N)(=O)=O)c3)ncc2F)cc1 [VI-61, N2-(3-Aminosulfonyl-4-methylphenyl)-N4-[4-(but-2-ynyloxy)phenyl]-5-fluoro-2,4-pyrimidinediamine] | 6.73
11 | Cc1cnc(Nc2ccc(S(N)(=O)=O)cc2)nc1Nc1ccc2c(c1)NC(=O)CO2 [VII-31, N2-(4-Aminosulphonylphenyl)-5-methyl-N4-(3-oxo-benz[1,4]oxazin-6-yl)-2,4-pyrimidinediamine] | 6.76
12 | C#CCOc1ccc(Nc2nc(Nc3ccc(C)c(S(N)(=O)=O)c3)ncc2F)cc1Cl [VI-59, N2-(3-Aminosulfonyl-4-methylphenyl)-N4-[3-chloro-4-(prop-2-ynyloxy)phenyl]-5-fluoro-2,4-pyrimidinediamine] | 6.47
13 | N#CCc1c[nH]c2ccc(Nc3nc(Nc4cccc(S(N)(=O)=O)c4)ncc3F)cc12 [IX-13, N2-(3-Aminosulfonylphenyl)-N4-(3-cyanomethyl-1H-indol-5-yl)-5-fluoro-2,4-pyrimidinediamine] | 6.37
14 | NS(=O)(=O)c1cccc(Nc2ncc(F)c(Nc3ccc(CCCO)cc3)n2)c1 [VI-86, N2-(3-Aminosulfonylphenyl)-5-fluoro-N4-[4-(3-hydroxypropyl)phenyl]-2,4-pyrimidinediamine] | 6.75
15 | NS(=O)(=O)c1cccc(Nc2ncc(F)c(Nc3ccc(C(F)(F)F)cc3)n2)c1 [VI-51, N2-(3-Aminosulfonylphenyl)-5-fluoro-N4-(4-trifluoromethylphenyl)-2,4-pyrimidinediamine] | 6.26
16 | NC(=O)c1cc2cc(Nc3nc(Nc4cccc(S(N)(=O)=O)c4)ncc3F)ccc2o1 [VII-54, N2-(3-Aminosulfonylphenyl)-N4-(2-aminocarbonylbenzofurane-5-yl)-5-fluoro-2,4-pyrimidinediamine] | 6.22
17 | C#CCOc1ccc(Nc2nc(Nc3ccc(C)c(S(N)(=O)=O)c3)ncc2F)cc1 [VI-53, N2-(3-Aminosulfonyl-4-methylphenyl)-5-fluoro-N4-[4-(prop-2-ynyloxy)phenyl]-2,4-pyrimidinediamine] | 6.74
18 | Cc1cc(Nc2ncc(F)c(Nc3ccc(OC(F)(F)F)c(Cl)c3)n2)cc(S(N)(=O)=O)c1Cl [VI-18, N2-(3-Aminosulfonyl-4-chloro-5-methylphenyl)-N4-(3-chloro-4-trifluoromethoxyphenyl)-5-fluoro-2,4-pyrimidinediamine] | 5.36
19 | NS(=O)(=O)c1cccc(Nc2ncc(F)c(Nc3ccc(C(=O)N4CCSCC4)cc3)n2)c1 [IX-34, N2-(3-Aminosulfonylphenyl)-5-fluoro-N4-[4-(4-thiomorpholinyl)carbonylphenyl]-2,4-pyrimidinediamine] | 6.24

Row | SMILES | pIC50
20 | Cc1ccc(Nc2ncc(F)c(Nc3ccc(-c4cnco4)cc3)n2)cc1S(N)(=O)=O [IV-6, N2-(3-Aminosulfonyl-4-methylphenyl)-5-fluoro-N4-[4-(1,3-oxazol-5-yl)phenyl]-2,4-pyrimidinediamine] | 6.88
21 | COc1ccc(CN2C(=O)C(C)Sc3ccc(Nc4nc(Nc5ccc(S(N)(=O)=O)cc5)ncc4F)cc32)cc1 (racemic) [Compound V-10, (R/S)-N2-(4-Aminosulphonylphenyl)-5-fluoro-N4-[2-methyl-3-oxo-4-(4-methoxybenzyl)-benzo[1,4]thiazin-6-yl]-2,4-pyrimidinediamine] | 5.08
22 | COc1ccc(Nc2nc(Nc3cc(C)c(F)c(S(N)(=O)=O)c3)ncc2F)cc1Cl [VI-15, N2-(3-Aminosulfonyl-4-fluoro-5-methylphenyl)-N4-(3-chloro-4-methoxyphenyl)-5-fluoro-2,4-pyrimidinediamine] | 6.33
23 | NS(=O)(=O)c1cccc(Nc2ncc(F)c(Nc3ccc(Cl)c(Cl)c3)n2)c1 [VI-110, N2-(3-Aminosulfonylphenyl)-N4-(3,4-dichlorophenyl)-5-fluoro-2,4-pyrimidinediamine] | 6.46
24 | NS(=O)(=O)c1ccc(Nc2ncc(F)c(NCCc3ccc(-n4ccnc4)cc3)n2)cc1 [III-90, N2-(4-Aminosulfonylphenyl)-5-fluoro-N4-[4-(1-imidazolyl)phenethyl]-2,4-pyrimidinediamine] | 6.33
25 | C#CCn1ccc2cc(Nc3nc(Nc4ccc(C)c(S(N)(=O)=O)c4)ncc3F)ccc21 [IX-1, N2-(3-Aminosulfonyl-4-methylphenyl)-5-fluoro-N4-[1-(propyn-3-yl)indol-5-yl]-2,4-pyrimidinediamine] | 6.24
26 | COc1ccc(Nc2nc(Nc3cccc(S(N)(=O)=O)c3)ncc2Br)cc1Cl [VI-26, N2-(3-aminosulfonylphenyl)-5-bromo-N4-(3-chloro-4-methoxyphenyl)-2,4-pyrimidinediamine] | 7.54
27 | NS(=O)(=O)c1cccc(Nc2ncc(F)c(Nc3ccc4ncccc4c3)n2)c1 [VII-70, N2-(3-Aminosulfonylphenyl)-5-fluoro-N4-(quinolin-6-yl)-2,4-pyrimidinediamine] | 6.43
28 | Cc1ccc2cc(Nc3nc(Nc4cccc(S(N)(=O)=O)c4)ncc3F)ccc2n1 [VII-72, N2-(3-Aminosulfonylphenyl)-5-fluoro-N4-(2-methylquinolin-6-yl)-2,4-pyrimidinediamine] | 6.38
29 | CNC(=O)OCc1cccc(Nc2nc(Nc3ccc(C)c(S(N)(=O)=O)c3)ncc2F)c1 [VI-49, N2-(3-Aminosulfonyl-4-methylphenyl)-5-fluoro-N4-[3-(methylaminocarbonyloxymethyl)phenyl]-2,4-pyrimidinediamine] | 5.90
30 | NS(=O)(=O)c1cccc(Nc2ncc(F)c(Nc3ccc(CCCCO)cc3)n2)c1 [VI-89, N2-(3-Aminosulfonylphenyl)-5-fluoro-N4-[4-(4-hydroxybutyl)phenyl]-2,4-pyrimidinediamine] | 6.77
31 | N#CCc1c[nH]c2c(Nc3nc(Nc4cccc(S(N)(=O)=O)c4)ncc3F)cccc12 [IX-15, N2-(3-Aminosulfonylphenyl)-N4-(3-cyanomethyl-1H-indol-7-yl)-5-fluoro-2,4-pyrimidinediamine] | 6.80
32 | COc1ccc(Nc2nc(Nc3ccc(N4CCN(C)CC4)c(S(N)(=O)=O)c3)ncc2F)cc1Cl [VI-116, N2-[3-Aminosulfonyl-4-(4-methylpiperazine-1-yl)phenyl]-N4-(3-chloro-4-methoxyphenyl)-5-fluoro-2,4-pyrimidinediamine] | 6.76
33 | Cc1cnc(Nc2cccc(S(N)(=O)=O)c2)nc1Nc1ccc2c(c1)N(C)C(=O)CS2 [VII-35, N2-(3-Aminosulphonylphenyl)-5-methyl-N4-(4-methyl-3-oxo-benzo[1,4]thiazin-6-yl)-2,4-pyrimidinediamine] | 7.34
34 | Cc1ccc(Nc2ncc(F)c(Nc3ccc(O)cc3)n2)cc1S(N)(=O)=O [VI-102, N2-(3-Aminosulfonyl-4-methylphenyl)-5-fluoro-N4-[4-hydroxyphenyl]-2,4-pyrimidinediamine] | 6.87
35 | COc1ccc(Nc2nc(Nc3cc(Cl)c(C)c(S(N)(=O)=O)c3)ncc2F)cc1Cl [VI-13, N2-(3-Aminosulfonyl-5-chloro-4-methylphenyl)-N4-(3-chloro-4-methoxyphenyl)-5-fluoro-2,4-pyrimidinediamine] | 5.87
36 | CN1C(=O)C(C)(C)S(=O)(=O)c2ccc(Nc3nc(Nc4ccc(S(N)(=O)=O)cc4)ncc3F)cc21 [VII-12, N2-(4-Aminosulphonylphenyl)-5-fluoro-N4-(2,2,4-trimethyl-1,1,3-trioxo-benzo[1,4]thiazin-6-yl)-2,4-pyrimidinediamine] | 5.17
37 | COc1c(C)cc(Nc2ncc(F)c(Nc3ccc(C(C)(C)C)cc3)n2)cc1S(N)(=O)=O [VI-37, N2-(3-Aminosulfonyl-4-methoxy-5-methylphenyl)-N4-(4-tert-butylphenyl)-5-fluoro-2,4-pyrimidinediamine] | 5.97
